Measurements reported in ChEMBL document CHEMBL6092226, “Tilting the Scales toward EGFR Mutant Selectivity: Expanding the Scope of Bivalent "Type V" Kinase Inhibitors” (J Med Chem, 2024).
Calls of active or inactive are those of the source. No cut-off for these calls is given here.

Experiments:
Homo sapiens = organism: Homo sapiens; experiment: Inhibition of DMPK2 (unknown origin) at 1 uM by Eurofins DiscoverX KINOMEscan analysis relative to control
BaF3 [1] = experiment: cells; details: Mus musculus, BaF3, 72 h
HCC827 = experiment: cells; details: Homo sapiens, HCC827, 72 h
BaF3 [2] = assay type: functional, cell-based; details: Mus musculus, BaF3, 72 h
[3] = molecular target: T1, Tyrosine-protein kinase ITK/TSK (Homo sapiens) (UniProt Q08881); experiment: Inhibition of ITK (unknown origin) at 1 uM by Eurofins DiscoverX KINOMEscan analysis
T1 sequence (whole entry): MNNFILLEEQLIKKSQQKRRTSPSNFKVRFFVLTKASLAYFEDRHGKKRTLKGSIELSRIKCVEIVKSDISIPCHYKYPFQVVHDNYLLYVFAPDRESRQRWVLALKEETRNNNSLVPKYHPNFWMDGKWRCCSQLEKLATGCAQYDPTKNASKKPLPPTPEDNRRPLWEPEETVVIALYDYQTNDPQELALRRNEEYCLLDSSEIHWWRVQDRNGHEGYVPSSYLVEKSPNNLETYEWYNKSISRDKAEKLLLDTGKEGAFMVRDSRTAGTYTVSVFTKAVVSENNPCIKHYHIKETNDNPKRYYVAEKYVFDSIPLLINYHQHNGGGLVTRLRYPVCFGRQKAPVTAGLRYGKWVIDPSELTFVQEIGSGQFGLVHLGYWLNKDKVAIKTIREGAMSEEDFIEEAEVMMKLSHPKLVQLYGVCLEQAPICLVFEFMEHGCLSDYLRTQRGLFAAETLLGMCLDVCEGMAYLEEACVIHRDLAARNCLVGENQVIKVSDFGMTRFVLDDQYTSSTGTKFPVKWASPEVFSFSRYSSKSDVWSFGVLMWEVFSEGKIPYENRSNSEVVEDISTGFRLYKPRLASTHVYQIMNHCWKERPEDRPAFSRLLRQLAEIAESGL

[4] = molecular target: Epidermal growth factor receptor (Homo sapiens, UniProt P00533, L858R/T790M); experiment: Time-dependent irreversible inhibition of GST-tagged EGFR L858R/T790M mutant cytoplasmic domain (669 to 1210 residues) (unknown origin) assessed as apparent inactivation constant (Ki) incubated for 240 mins in presence of ATP by fluorescence based analysis; details: read-out: Ki(app)
Chain of Epidermal growth factor receptor (Homo sapiens, UniProt P00533, L858R/T790M) (P00533 25-1210 T790M/L858R limits assumed): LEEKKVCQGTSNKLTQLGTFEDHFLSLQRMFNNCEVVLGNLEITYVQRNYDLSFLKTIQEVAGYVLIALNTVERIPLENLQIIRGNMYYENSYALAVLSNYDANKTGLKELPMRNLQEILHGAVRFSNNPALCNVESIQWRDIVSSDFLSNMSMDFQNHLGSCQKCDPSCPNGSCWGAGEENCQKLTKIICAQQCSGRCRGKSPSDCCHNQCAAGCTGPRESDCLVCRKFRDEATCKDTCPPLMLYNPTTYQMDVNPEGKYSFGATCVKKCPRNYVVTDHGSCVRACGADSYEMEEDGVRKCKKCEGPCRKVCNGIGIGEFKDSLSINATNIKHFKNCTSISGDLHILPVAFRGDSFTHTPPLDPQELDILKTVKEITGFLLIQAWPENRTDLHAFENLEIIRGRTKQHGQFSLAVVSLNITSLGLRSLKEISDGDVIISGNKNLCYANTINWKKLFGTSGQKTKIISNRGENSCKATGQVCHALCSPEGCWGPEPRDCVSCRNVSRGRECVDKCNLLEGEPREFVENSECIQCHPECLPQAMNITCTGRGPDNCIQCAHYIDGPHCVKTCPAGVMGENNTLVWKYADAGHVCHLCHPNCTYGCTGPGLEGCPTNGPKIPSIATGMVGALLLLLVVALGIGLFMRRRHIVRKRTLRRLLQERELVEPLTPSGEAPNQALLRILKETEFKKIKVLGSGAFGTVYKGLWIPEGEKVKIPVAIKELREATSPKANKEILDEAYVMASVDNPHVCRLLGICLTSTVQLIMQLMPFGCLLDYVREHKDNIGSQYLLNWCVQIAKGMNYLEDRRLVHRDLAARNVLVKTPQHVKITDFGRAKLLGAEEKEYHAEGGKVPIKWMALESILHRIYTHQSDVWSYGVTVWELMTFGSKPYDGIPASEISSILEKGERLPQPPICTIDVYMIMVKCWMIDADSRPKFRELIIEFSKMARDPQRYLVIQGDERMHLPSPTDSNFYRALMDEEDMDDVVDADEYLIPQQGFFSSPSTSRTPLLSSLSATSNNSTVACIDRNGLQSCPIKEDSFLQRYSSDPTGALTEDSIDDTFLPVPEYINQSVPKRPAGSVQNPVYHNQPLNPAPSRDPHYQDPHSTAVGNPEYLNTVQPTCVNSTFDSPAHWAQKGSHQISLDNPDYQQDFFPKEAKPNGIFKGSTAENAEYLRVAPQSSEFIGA

BaF3 [5] = experiment: cells; details: Mus musculus, BaF3, 72 h; remark: listed apart in the source
[6] = molecular target: Myosin-IIIa (Homo sapiens) (UniProt Q8NEV4); experiment: Inhibition of MYO3A (unknown origin) at 1 uM by Eurofins DiscoverX KINOMEscan analysis relative to control
Chain of Myosin-IIIa (Homo sapiens) (Q8NEV4 whole entry): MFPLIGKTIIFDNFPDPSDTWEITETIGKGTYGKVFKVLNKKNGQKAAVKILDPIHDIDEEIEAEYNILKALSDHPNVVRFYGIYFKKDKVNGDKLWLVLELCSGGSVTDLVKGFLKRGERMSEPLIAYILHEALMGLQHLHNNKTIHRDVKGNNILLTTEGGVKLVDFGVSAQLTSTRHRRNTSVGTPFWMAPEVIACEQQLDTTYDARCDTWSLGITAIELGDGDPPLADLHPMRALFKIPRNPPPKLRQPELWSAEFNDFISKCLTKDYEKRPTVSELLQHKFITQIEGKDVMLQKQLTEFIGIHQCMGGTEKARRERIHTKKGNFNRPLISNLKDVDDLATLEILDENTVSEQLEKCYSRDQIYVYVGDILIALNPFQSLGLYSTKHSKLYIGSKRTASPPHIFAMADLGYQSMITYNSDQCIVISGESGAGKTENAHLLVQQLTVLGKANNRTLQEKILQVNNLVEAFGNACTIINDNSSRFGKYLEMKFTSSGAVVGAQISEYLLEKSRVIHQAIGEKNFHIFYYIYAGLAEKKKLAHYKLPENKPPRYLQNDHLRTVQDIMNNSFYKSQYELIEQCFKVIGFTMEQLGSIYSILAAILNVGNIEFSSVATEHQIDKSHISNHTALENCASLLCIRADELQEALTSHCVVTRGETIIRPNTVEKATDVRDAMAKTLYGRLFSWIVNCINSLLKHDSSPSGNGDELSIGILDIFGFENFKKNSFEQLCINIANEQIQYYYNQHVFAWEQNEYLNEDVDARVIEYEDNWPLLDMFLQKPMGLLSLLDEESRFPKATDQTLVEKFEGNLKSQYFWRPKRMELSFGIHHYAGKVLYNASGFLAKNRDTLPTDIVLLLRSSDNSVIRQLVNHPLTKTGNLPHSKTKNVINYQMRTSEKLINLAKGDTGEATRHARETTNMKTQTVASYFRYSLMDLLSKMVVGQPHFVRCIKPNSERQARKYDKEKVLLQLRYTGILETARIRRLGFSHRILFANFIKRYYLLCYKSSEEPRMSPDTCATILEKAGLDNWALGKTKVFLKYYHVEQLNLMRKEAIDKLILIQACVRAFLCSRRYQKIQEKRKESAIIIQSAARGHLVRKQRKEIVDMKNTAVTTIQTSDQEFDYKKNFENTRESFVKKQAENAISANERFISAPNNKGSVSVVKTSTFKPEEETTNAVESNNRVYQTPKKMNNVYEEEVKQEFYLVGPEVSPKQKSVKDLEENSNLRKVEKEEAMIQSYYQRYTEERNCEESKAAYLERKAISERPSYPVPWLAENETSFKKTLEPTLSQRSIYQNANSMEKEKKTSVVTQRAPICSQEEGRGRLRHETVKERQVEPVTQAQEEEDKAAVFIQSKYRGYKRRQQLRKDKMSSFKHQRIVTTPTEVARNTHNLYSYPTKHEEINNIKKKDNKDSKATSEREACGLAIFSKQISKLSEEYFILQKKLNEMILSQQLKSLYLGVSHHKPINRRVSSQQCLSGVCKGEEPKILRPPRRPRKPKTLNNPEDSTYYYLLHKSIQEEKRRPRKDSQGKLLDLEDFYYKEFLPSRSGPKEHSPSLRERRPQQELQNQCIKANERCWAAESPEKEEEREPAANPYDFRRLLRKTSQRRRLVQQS

[7] = molecular target: T2, Tyrosine-protein kinase Tec (Homo sapiens) (UniProt P42680); experiment: Inhibition of TEC (unknown origin) at 1 uM by Eurofins DiscoverX KINOMEscan analysis
T2 sequence (whole entry): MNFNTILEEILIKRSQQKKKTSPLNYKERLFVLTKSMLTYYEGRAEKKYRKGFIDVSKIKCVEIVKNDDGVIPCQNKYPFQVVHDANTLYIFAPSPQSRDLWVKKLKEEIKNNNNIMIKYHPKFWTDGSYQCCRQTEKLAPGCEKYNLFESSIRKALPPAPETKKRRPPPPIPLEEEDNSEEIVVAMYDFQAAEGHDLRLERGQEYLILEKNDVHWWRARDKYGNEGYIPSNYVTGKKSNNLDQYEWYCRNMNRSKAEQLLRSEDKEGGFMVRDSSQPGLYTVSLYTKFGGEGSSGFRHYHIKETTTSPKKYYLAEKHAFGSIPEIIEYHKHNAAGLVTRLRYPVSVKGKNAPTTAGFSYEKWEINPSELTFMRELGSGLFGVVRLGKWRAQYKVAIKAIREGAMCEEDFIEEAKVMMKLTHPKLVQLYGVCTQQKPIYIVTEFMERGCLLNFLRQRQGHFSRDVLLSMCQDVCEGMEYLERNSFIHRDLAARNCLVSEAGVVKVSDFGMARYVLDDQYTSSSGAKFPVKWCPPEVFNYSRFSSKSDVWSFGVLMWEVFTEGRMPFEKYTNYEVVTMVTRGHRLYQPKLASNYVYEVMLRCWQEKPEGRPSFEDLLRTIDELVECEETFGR

BaF3 [8] = experiment: Antiproliferative activity against mouse BaF3 cells harboring EGFR exon 19del mutant incubated for 72 hrs by MTT assay; assay type: functional, cell-based; details: BaF3, 72 h
[9] = molecular target: Epidermal growth factor receptor (Homo sapiens, UniProt P00533); experiment: Time-dependent irreversible inhibition of N-terminal GST-tagged wildtype human EGFR cytoplasmic domain (669 to 1210 residues) extracted from Sf21 insect cells assessed as apparent inactivation constant (Ki) incubated for 240 mins in presence of ATP by fluorescence based analysis; details: read-out: Ki(app)
Chain of Epidermal growth factor receptor (Homo sapiens, UniProt P00533) (P00533 whole entry, the tested form may be a part): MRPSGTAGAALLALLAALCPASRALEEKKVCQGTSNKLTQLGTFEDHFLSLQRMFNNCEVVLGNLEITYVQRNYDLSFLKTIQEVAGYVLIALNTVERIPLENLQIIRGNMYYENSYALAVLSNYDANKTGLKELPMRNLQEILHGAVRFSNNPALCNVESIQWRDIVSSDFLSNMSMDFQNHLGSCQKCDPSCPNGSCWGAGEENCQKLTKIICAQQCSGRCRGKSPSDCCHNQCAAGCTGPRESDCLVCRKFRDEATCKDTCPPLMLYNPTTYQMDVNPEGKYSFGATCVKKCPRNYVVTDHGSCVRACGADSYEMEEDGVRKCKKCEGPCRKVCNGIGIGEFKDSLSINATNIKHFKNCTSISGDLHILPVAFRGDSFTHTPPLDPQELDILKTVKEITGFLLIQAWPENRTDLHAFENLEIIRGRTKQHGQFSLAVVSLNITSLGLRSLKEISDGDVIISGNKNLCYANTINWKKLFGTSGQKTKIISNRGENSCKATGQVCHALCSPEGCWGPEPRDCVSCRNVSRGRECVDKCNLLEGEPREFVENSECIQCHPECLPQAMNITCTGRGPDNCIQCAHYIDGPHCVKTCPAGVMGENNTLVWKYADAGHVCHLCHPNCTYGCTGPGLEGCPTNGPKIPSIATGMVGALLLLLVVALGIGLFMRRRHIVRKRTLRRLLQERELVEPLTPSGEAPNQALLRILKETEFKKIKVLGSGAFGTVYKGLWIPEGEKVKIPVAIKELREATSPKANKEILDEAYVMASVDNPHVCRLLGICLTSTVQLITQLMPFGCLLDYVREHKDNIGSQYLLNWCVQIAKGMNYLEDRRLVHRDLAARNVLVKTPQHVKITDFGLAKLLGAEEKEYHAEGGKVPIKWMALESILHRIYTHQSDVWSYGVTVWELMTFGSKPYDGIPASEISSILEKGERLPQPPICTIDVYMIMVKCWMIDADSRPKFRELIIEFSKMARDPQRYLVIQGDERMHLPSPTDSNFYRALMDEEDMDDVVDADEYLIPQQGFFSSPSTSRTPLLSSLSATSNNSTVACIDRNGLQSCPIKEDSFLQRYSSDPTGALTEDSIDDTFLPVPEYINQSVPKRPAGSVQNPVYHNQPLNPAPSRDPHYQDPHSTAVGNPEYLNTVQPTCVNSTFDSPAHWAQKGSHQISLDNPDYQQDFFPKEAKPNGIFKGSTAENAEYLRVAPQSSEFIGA

[10] = molecular target: T3, Tyrosine-protein kinase TXK (Homo sapiens) (UniProt P42681); experiment: Inhibition of TXK (unknown origin) at 1 uM by Eurofins DiscoverX KINOMEscan analysis
T3 sequence (whole entry): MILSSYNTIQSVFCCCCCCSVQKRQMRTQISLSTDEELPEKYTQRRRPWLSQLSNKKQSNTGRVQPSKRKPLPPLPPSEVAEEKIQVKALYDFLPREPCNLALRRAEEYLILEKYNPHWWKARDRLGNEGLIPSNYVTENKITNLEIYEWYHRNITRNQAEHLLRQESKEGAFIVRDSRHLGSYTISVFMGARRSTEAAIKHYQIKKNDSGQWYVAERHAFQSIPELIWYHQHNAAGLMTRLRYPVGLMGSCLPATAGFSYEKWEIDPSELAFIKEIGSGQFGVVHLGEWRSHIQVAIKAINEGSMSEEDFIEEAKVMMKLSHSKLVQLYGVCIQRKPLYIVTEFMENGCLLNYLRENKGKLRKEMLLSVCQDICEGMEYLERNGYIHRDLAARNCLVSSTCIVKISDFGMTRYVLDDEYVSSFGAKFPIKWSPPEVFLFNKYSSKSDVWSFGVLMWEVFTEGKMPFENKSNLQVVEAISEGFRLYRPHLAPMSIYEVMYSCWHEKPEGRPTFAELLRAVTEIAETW

[11] = molecular target: T4, Dual specificity mitogen-activated protein kinase kinase 7 (Homo sapiens) (UniProt O14733); experiment: Inhibition of MKK7 (unknown origin) at 1 uM by Eurofins DiscoverX KINOMEscan analysis
T4 sequence (whole entry): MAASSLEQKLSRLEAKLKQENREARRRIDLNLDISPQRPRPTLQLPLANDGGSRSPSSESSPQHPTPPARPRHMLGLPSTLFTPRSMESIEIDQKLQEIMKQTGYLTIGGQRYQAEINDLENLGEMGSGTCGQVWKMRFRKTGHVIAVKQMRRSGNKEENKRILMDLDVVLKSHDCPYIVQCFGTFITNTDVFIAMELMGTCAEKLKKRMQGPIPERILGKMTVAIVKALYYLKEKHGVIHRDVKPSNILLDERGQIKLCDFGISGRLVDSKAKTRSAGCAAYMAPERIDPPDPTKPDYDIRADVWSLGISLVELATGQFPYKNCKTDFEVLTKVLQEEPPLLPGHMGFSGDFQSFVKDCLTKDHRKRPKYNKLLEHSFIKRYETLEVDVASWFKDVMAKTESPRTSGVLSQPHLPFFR

C=CC(=O)Nc1ccc(OC)c(Nc2cc(-c3[nH]c(SC)nc3-c3cccc(NC(=O)c4cccc(O)c4CN4Cc5ccccc5C4=O)c3)ccn2)c1
inhibition (Homo sapiens): < 10% | EC50 (BaF3 [1]): 750 nM | EC50 (HCC827): 160 nM | EC50 (BaF3 [2]): 3900 nM | inhibition [3]: inactive | Ki [4]: 543 nM | EC50 (BaF3 [5]): 150 nM | inhibition [6]: < 10% | inhibition [7]: inactive | EC50 (BaF3 [8]): 950 nM | Ki [9]: 1320 nM | inhibition [10]: inactive | inhibition [11]: inactive
